Results published in PMC10224544, “Synthesis, Structural Elucidation and Pharmacological Applications of Cu(II) Heteroleptic Carboxylates” (Pharmaceuticals, 2023).

What was measured:
[1] = target: butyrylcholinesterase (BChE) (Equus caballus, UniProt P81908); assay: biochemical; conditions: for inhibition of butyrylcholinesterase (% BChE activity): n = 3
Description: (§1) The enzymes acetylcholinesterase (AChE) and butyrylcholinesterase (BChE) play an important role in the transfer of signals and physiological function. They assist acetylcholine to hydrolyze and produce choline and acetyl group in synaptic region. So, they are considered as targets in the management of Alzheimer’s disease. Herein, the compounds under study were evaluated for their potential to inhibit acetylthiocholine iodide (AChI) and butyrylthiocholine iodide (BChI) enzymes.
(§2) The well-known Ellman’s assay was implemented to evaluate the inhibitory potential using acetylthiocholine iodide (AChI) and butyrylthiocholine iodide (BChI) as substrates, respectively. The basic principle of the assay is the hydrolysis of acetylthiocholine iodide and butyrylthiocholine iodide by their corresponding enzymes, resulting in the formation of 5-thio-2-nitrobenzoate anion.
(§3) To carry out the assay, 0.1 M buffer solution with pH 8 was prepared as per the cited literature where the pH was adjusted using KOH (potassium hydroxide). Using the freshly prepared buffer and following the dilution, final concentrations of 0.03 U/mL for AChE (518 U/mg solid) and 0.01 U/mL for BChE (7–16 U/mg) were obtained. […] After that, the final solution of each of the AChE and BChE was prepared in distilled water in the presence of […] DTNB and were stored at 8 °C. The experiment was performed by taking 205 µL of inhibitor (tested compound) along with 5 µL of prepared solutions of enzymes, followed by the addition of 5 μL DTNB reagent. They were then incubated for about 15 min in a water bath at a temperature of 30 °C. Later on, 5 µL substrate solution was added to them which were subjected to absorption check at 412 nm. […] The temperature of the spectrophotometer was adjusted at 30 °C and then, following the reaction time of 4 min, the absorbance values were noted after regular intervals. The experiment was repeated, and change in absorption with time was used to calculate the percentage activity of enzyme and enzyme inhibitor [59]. The p values, or calculated probability levels, are categorized as: 5% (p < 0.05), 1% (p < 0.01) and 0.1% (p < 0.001). p < 0.05 means statistically significant and p < 0.001 means highly statistically significant.

DPPH scavenging assay [2] = conditions: for DPPH Free Radical Scavenging Ability: mean ± S.E.M, n = 3
Text: The antioxidant potential of the free acids and their Cu(II) carboxylates was explored via the DPPH method using ascorbic acid as a reference. The DPPH, with a single unpaired electron, is capable of accepting a hydrogen or electron and gives a strong absorption at 517 nm. The absorption generally decreases when it accepts a hydrogen or electron from an antioxidant, forming a stable molecule. The results given in Table 5 indicate that the compounds under study show a moderate level of antioxidant potential. This activity may be attributed to the various structural and electronic factors like coordination geometry, redox properties, chelate ring size, degree of unsaturation, etc.. The transfer of proton or electron from an antioxidant to DPPH results in the formation of species that undergo other reactions like coupling, fragmentation, and addition, which affect the rate and stoichiometry of the reaction.
The compounds under study were subjected to DPPH scavenging ability test as per cited literature. A 0.004% solution of reagent DPPH was added to the different concentrations of tested compounds (i.e., 125, 250, 500 and 1000 μg/mL) and the reaction mixture was incubated subsequently for about thirty minutes in dark. Ascorbic acid was used as positive control. The UV-3000 O.R.I. Germany was used to record the change in absorption of the reaction mixture at 517 nm and the percentage scavenging ability of the compounds under study was determined using formula: % scavenging activity =Absorbance of control−Absorbance of compounds /Absorbance of control×100
The experiments were repeated thrice. The GraphPad Prism® (version 4.0, Sandiego, CA, USA) was used to calculate the IC50 values.

DPPH scavenging assay [3] = conditions: Comp. Conc. 62.5 µg/mL; mean ± S.E.M, n = 3
[4] = Hydrogen peroxide scavenging assay; conditions: for H2O2 free radical scavenging ability: mean ± S.E.M, n = 3
Description: In addition to DPPH the ligand acids and their complexes were also evaluated for their peroxide scavenging ability test. Hydrogen peroxide (H2O2) is a biologically important, non-radical reactive oxygen species (ROS) that can influence several cellular processes. It is a weak oxidizing agent and can inactivate a few enzymes directly, usually via oxidation of essential thiol (-SH) groups. It can cross cell membranes rapidly, and inside the cell, H2O2 probably reacts with Fe^2+ (and possibly Cu^2+) ions to form the hydroxyl radical, which may be the origin of many of its toxic effects. It is, therefore, biologically advantageous for cells to control the amount of hydrogen peroxide that is allowed to accumulate.
The ligand acids and their Cu(II) carboxylates were further subjected to H2O2 scavenging ability test potential by following the procedure as per cited literature. A 2 mM solution of H2O2 was made in 50 mM phosphate buffer having a pH 7.4. In the next step, 0.1 mL of the screened compounds was added to the 0.3 mL (50 mM) of phosphate buffer, then 0.6 mL of H2O2 was added and the solution was vortexed. After following the incubation period of 10 min, the absorption was 230 nm in comparison to the blank.

[5] = target: acetylcholinesterase (AChE) (Electrophorus electricus, UniProt O42275); assay: biochemical; format: biochemical; conditions: for Inhibition of Acetylcholinesterase (%AChE Activity): n = 3
acetylcholinesterase (AChE), sequence (O42275 24-633): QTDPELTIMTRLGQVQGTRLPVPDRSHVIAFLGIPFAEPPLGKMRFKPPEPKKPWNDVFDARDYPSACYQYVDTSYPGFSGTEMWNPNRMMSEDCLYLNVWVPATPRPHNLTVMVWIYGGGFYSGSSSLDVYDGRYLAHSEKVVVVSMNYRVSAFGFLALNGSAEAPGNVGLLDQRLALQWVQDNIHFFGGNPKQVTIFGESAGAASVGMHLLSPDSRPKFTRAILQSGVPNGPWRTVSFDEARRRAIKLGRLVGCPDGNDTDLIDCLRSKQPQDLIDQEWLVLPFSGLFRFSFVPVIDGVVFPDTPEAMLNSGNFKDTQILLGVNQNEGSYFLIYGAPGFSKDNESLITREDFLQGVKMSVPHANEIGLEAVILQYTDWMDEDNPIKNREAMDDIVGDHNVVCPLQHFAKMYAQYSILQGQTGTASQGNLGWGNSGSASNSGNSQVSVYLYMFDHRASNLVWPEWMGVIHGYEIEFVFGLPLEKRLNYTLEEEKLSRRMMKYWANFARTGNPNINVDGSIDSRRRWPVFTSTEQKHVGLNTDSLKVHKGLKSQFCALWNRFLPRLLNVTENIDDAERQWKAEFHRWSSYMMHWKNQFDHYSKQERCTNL
Description: The synthesized compounds were evaluated for acetylcholinesterase (ACh) and butyrylcholinesterase (BCh) enzyme inhibitory activities.
as §1, §2, §3

butyrylcholinesterase (BChE), sequence (P81908 whole entry): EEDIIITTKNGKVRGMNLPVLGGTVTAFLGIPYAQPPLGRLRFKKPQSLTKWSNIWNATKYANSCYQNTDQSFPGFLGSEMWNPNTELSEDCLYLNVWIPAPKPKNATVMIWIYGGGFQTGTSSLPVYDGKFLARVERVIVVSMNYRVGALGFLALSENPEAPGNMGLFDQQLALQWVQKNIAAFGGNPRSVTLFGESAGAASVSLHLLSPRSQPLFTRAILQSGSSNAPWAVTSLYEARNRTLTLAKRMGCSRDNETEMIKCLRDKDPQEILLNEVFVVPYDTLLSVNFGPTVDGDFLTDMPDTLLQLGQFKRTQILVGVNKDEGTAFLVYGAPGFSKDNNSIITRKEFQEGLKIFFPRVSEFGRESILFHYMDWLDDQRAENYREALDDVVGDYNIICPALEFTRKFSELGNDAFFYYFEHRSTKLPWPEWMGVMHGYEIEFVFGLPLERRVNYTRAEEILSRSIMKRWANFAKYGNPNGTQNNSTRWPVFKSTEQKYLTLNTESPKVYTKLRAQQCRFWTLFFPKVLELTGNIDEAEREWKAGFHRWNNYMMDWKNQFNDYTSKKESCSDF

SMILES | IC50, inhibition of butyrylcholinesterase [1] | inhibition of butyrylcholinesterase (% BChE activity) ([1]; Comp. Conc. 62.5 µg/mL) | inhibition of butyrylcholinesterase (% BChE activity) ([1]; Comp. Conc. 125 µg/mL) | inhibition of butyrylcholinesterase (% BChE activity) ([1]; Comp. Conc. 250 µg/mL) | inhibition of butyrylcholinesterase (% BChE activity) ([1]; Comp. Conc. 500 µg/mL) | inhibition of butyrylcholinesterase (% BChE activity) ([1]; Comp. Conc. 1000 µg/mL) | IC50, DPPH Free Radical Scavenging Ability (DPPH scavenging assay [2]) | DPPH Free Radical Scavenging Ability (DPPH scavenging assay [2]; Comp. Conc. 125 µg/mL) | DPPH Free Radical Scavenging Ability (DPPH scavenging assay [2]; Comp. Conc. 250 µg/mL) | DPPH Free Radical Scavenging Ability (DPPH scavenging assay [2]; Comp. Conc. 500 µg/mL) | DPPH Free Radical Scavenging Ability (DPPH scavenging assay [2]; Comp. Conc. 1000 µg/mL) | DPPH Free Radical Scavenging Ability (DPPH scavenging assay [3]) | IC50, H2O2 free radical scavenging ability [4] | H2O2 free radical scavenging ability ([4]; Comp. Conc. 62.5 µg/mL) | H2O2 free radical scavenging ability ([4]; Comp. Conc. 125 µg/mL) | H2O2 free radical scavenging ability ([4]; Comp. Conc. 250 µg/mL) | H2O2 free radical scavenging ability ([4]; Comp. Conc. 500 µg/mL) | H2O2 free radical scavenging ability ([4]; Comp. Conc. 1000 µg/mL) | Inhibition of Acetylcholinesterase (%AChE Activity) ([5]; Comp. Conc. 62.5 µg/mL) | Inhibition of Acetylcholinesterase (%AChE Activity) ([5]; Comp. Conc. 125 µg/mL) | further results
N#Cc1cccnc1.N#Cc1cccnc1.O=C([O-])Cc1cccc(Cl)c1.O=C([O-])Cc1cccc(Cl)c1.O=C([O-])Cc1cccc(Cl)c1.O=C([O-])Cc1cccc(Cl)c1.[Cu+2].[Cu+2] [Complex 4, Cu2(3-ClC6H4COO)4(3-CNPy)2] | 03 µg/mL | 68.52 ± 0.38 % | 72.64 ± 0.16 % | 77.61 ± 1.70 % | 81.94 ± 0.45 % | 86.47 ± 0.22 ^⸸ % | 8.45 µg/mL | 68.30 ± 0.64 % | 73.34 ± 0.63 % | 78.30 ± 0.64 % | 83.17 ± 0.72 % | 61.93 ± 1.13 % | 8.71 µg/mL | 63.47 ± 0.56 % | 67.74 ± 0.61 % | 73.67 ± 0.61 % | 78.76 ± 0.58 % | 85.00 ± 0.30 ^⸸ % | 67.90 ± 1.16 % | 72.34 ± 0.55 % | IC50, Inhibition of Acetylcholinesterase [5]: 6 µg/mL; Inhibition of Acetylcholinesterase (%AChE Activity) ([5]; Comp. Conc. 250 µg/mL): 78.36 ± 0.49 ^⸸ %; Inhibition of Acetylcholinesterase (%AChE Activity) ([5]; Comp. Conc. 500 µg/mL): 83.39 ± 0.49 %; Inhibition of Acetylcholinesterase (%AChE Activity) ([5]; Comp. Conc. 1000 µg/mL): 89.39 ± 0.60 %
N#Cc1ccncc1.N#Cc1ccncc1.O=C([O-])Cc1cccc(Cl)c1.O=C([O-])Cc1cccc(Cl)c1.O=C([O-])Cc1cccc(Cl)c1.O=C([O-])Cc1cccc(Cl)c1.[Cu+2].[Cu+2] [Complex 5, Cu2(3-ClC6H4COO)4(4-CNPy)2] | 04 µg/mL | 72.74 ± 0.61 % | 76.54 ± 0.50 % | 81.48 ± 0.64 % | 86.86 ± 0.60 % | 91.62 ± 0.74 % | 20.29 µg/mL | 64.78 ± 0.60 % | 71.46 ± 0.53 % | 77.68 ± 0.63 % | 85.72 ± 0.79 % | 55.56 ± 0.52 % | 27.35 µg/mL | 59.81 ± 0.65 % | 66.65 ± 0.78 % | 75.70 ± 0.62 % | 80.76 ± 0.63 % | 84.83 ± 0.62 % | 69.91 ± 1.30 % | 71.76 ± 0.61 % | IC50, Inhibition of Acetylcholinesterase [5]: 5 µg/mL; Inhibition of Acetylcholinesterase (%AChE Activity) ([5]; Comp. Conc. 250 µg/mL): 76.87 ± 1.27 %; Inhibition of Acetylcholinesterase (%AChE Activity) ([5]; Comp. Conc. 500 µg/mL): 82.13 ± 0.20 ^⸸ %; Inhibition of Acetylcholinesterase (%AChE Activity) ([5]; Comp. Conc. 1000 µg/mL): 89.20 ± 0.23 %
O=C([O-])Cc1cccc(Cl)c1.O=C([O-])Cc1cccc(Cl)c1.O=C([O-])Cc1cccc(Cl)c1.O=C([O-])Cc1cccc(Cl)c1.Oc1ccncc1.Oc1ccncc1.[Cu+2].[Cu+2] [Complex 6, Cu2(3-ClC6H4COO)4(4-OHPy)2] | 42 µg/mL | 57.00 ± 1.15 % | 61.67 ± 0.89 % | 65.00 ± 0.58 % | 72.03 ± 0.23 % | 75.33 ± 0.49 % | 14.51 µg/mL | 63.47 ± 0.49 % | 68.75 ± 0.14 % | 75.59 ± 0.30 % | 80.85 ± 0.18 % | 58.12 ± 0.34 % | 10.65 µg/mL | 61.35 ± 0.18 % | 66.20 ± 0.15 % | 73.42 ± 0.11 % | 78.62 ± 0.17 % | 83.53 ± 0.20 % | 58.74 ± 0.68 % | 62.70 ± 1.25 % | Inhibition of Acetylcholinesterase (%AChE Activity) ([5]; Comp. Conc. 250 µg/mL): 67.05 ± 0.75 %; Inhibition of Acetylcholinesterase (%AChE Activity) ([5]; Comp. Conc. 500 µg/mL): 72.32 ± 1.06 %; Inhibition of Acetylcholinesterase (%AChE Activity) ([5]; Comp. Conc. 1000 µg/mL): 77.34 ± 0.98 %
